Results reported in patent US8685924B2, “Preventives/remedies for stress urinary incontinence and method of screening the same” (Takeda Pharmaceutical Company Limited, priority 2004, dated 2014).

Columns and labels:
Format in all cases: in vivo, rat
[1] = test system: urethane-anesthetized female rats; assay: Leak point pressure by abdominal wall-electrically stimulating method, serotonin 5-HT receptor agonists (Example 3); conditions: for leak point pressure after drug administration / leak point pressure increase / leak point pressure before drug administration: i.v., mean ± SEM; for leak point pressure before drug administration: baseline
Experimental: (§1) SD female rats (body weight 180-350 g) were anesthetized with urethane (Wako Pure Chemical Industries, Ltd.), and the spinal cord was transected at T8-9 level to eliminate the reflex voiding. In addition, the nerve to the iliococcygeus muscle/pubococcygeus muscle on the one side was transected. During operation, halothane (Takeda Pharmaceutical Company Limited) anesthesia was added when necessary. A catheter (PE-90, Clay Adams) was inserted into the bladder and secured with a ligature, and the incised part of each of the abdominal muscle and skin was closed with sutures. The abdominal skin near the diaphragm was incised at two left and right positions to newly expose the abdominal muscle. An Evans Blue dye (Merck) solution was injected into the bladder, and the bladder volume was adjusted to 0.2-0.3 ml. The bladder catheter was connected to a pressure transducer, and the signals of the transducer were sent to a computer via an amplifier (blood pressure amplification unit AP-641G; NIHON KOHDEN) and an analog-to-digital converter (BIOPAC; MP100), and recorded on a hard disc. The data were analyzed on a computer using software (BIOPAC; AcqKnowledge). The exposed abdominal muscle was electrostimulated using an electrostimulator (SEN-3301; NIHON KODEN) and an isolator (SS-202J; NIHON KODEN), and the presence or absence of incontinence from the meatus urethra was observed. The electrostimulation was applied at a voltage of 2.5-50 V, duration of 0.5 milisec, and frequency 50 Hz for 1 sec, thereby gradually increasing the intravesical pressure. The peak intravesical pressure during stimulation of the abdominal wall was measured and, of the trials with observed incontinence, the lowest peak intravesical pressure was defined as the leak point pressure. Serotonin 5-HT receptor agonist, WAY-161503 (5-HT2C receptor agonist), WAY-163909 (5-HT2C receptor agonist), DOI (5-HT2A/2B/2C receptor agonist), mCPP (5-HT2B/2C receptor partial agonist), eltoprazine (5-HT1A/1B/2C receptor partial agonist), 8-OH-DPAT (5-HT1A receptor agonist), sumatryptan (5-HT1B/1D receptor agonist) and BW723C86 (5-HT2B receptor agonist) were intravenously administered, and the leak point pressure was compared before and after the administration. DOI, mCPP and eltoprazine were dissolved in saline, and other drugs were dissolved in DMA/PEG400 (1:1), and they were intravenously administered at 1 ml/kg and 0.5 mg/kg, respectively. Depending on the experiment, RS-102221 (serotonin 5-HT2C receptor antagonist) or SB221284 (serotonin 5-HT2B/2C receptor antagonist) was intravenously administered 5 min before WAY-161503 or WAY-163909 administration, and an antagonistic effect against the WAY-161503 or WAY-163909-induced increment of the leak point pressure was examined. RS-102221 and SB221284 were both dissolved in DMA/PEG400 (1:1) and intravenously administered at 0.5 ml/kg.

[2] = test system: urethane-anesthetized female rats; assay: Antagonism of the leak point pressure increase by WAY-161503 / WAY-163909, abdominal wall-electrically stimulating method (Example 3); conditions: agonist 0.3 mg/kg, i.v., antagonist: solvent, mean ± SEM
Experimental: as §1

[3] = test system: urethane-anesthetized female rats; assay: Leak point pressure by abdominal wall electrostimulation, rats with nerve to iliococcygeus/pubococcygeus muscle transected on one side (Example 2); conditions: for leak point pressure after drug administration / leak point pressure increase / leak point pressure before drug administration: i.v., mean ± SEM; for leak point pressure before drug administration: baseline
Experimental: SD female rats (body weight 180-350 g) were anesthetized with urethane (Wako Pure Chemical Industries, Ltd.), and the spinal cord was cut at T8-9 level to eliminate the reflex voiding. In addition, the nerve to the iliococcygeus muscle/pubococcygeus muscle on the one side was transected. During operation, halothane (Takeda Pharmaceutical Company Limited) anesthesia was added when necessary. A catheter (PE-90, Clay Adams) was inserted into the bladder and secured with a ligature, and the incised part of each of the abdominal muscle and skin was closed with sutures. The abdominal skin near the diaphragm was incised at two left and right positions to newly expose the abdominal muscle. An Evans Blue dye (Merck) solution was injected into the bladder, and the bladder volume was adjusted to 0.2-0.3 ml. The bladder catheter was connected to a pressure transducer, and the signals of the transducer were sent to a computer via an amplifier (blood pressure amplification unit AP-641G; NIHON KOHDEN) and an analog-to-digital converter (BIOPAC; MP100), and recorded on a hard disc. The data were analyzed on a computer using software (BIOPAC; AcqKnowledge). The exposed abdominal muscle was electrostimulated using an electrostimulator (SEN-3301; NIHON KODEN) and an isolator (SS-202J; NIHON KODEN), and the presence or absence of incontinence from the urethral orifice was observed. The electrostimulation was applied at a voltage of 3-50 V, duration of 0.05-0.5 milisec, and frequency 50 Hz for 1 sec, thereby gradually increasing the intravesical pressure. The peak intravesical pressure during stimulation of the abdominal wall was measured and, of the trials with observed incontinence, the lowest peak intravesical pressure was defined as the leak point pressure. The leak point pressure was compared before and after the duloxetine and midodrine administration. Duloxetine was dissolved in […] (DMA)/polyethylene glycol 400 (PEG400) (1:1), and intravenously administered at 0.5 ml/kg. Midodrine (hydrochloride, Sigma) was dissolved in saline and intravenously administered at 1 ml/kg.

O=C1Nc2cc(Cl)c(Cl)cc2N2CCNCC12 (stereo not drawn) [WAY-161503]
leak point pressure after drug administration ([1]; 0.03 mg/kg): 58.7 ± 6.8 cmH2O
leak point pressure increase ([1]; 0.03 mg/kg): 9.7 ± 2.9 cmH2O
leak point pressure after drug administration ([1]; 0.1 mg/kg): 59.5 ± 4.9 cmH2O
leak point pressure increase ([1]; 0.1 mg/kg): 12.6 ± 2.8 cmH2O
leak point pressure after drug administration ([1]; 0.3 mg/kg): 68.1 ± 6.8 cmH2O
leak point pressure increase ([1]; 0.3 mg/kg): 19.6 ± 4.4 cmH2O
leak point pressure after drug administration ([1]; 1 mg/kg): 80.1 ± 2.7 cmH2O
leak point pressure increase ([1]; 1 mg/kg): 30.7 ± 3.5 cmH2O
leak point pressure before drug administration ([1]; dose group 0.03 mg/kg): 49.0 ± 8.0 cmH2O
leak point pressure before drug administration ([1]; dose group 0.1 mg/kg): 46.9 ± 4.6 cmH2O
leak point pressure before drug administration ([1]; dose group 0.3 mg/kg): 48.5 ± 5.2 cmH2O
leak point pressure before drug administration ([1]; dose group 1 mg/kg): 49.4 ± 1.4 cmH2O
dose at which a significant effect on the leak point pressure was afforded ([1]; intravenous administration): not less than 0.03 mg/kg
effect on leak point pressure ([1]; intravenous administration): dose-dependently increased the leak point pressure
leak point pressure after drug administration [2]: 76.6 ± 5.4 cmH2O
leak point pressure increase [2]: 27.8 ± 2.8 cmH2O
leak point pressure before drug administration ([2]; baseline): 48.7 ± 5.3 cmH2O

CNCC[C@H](Oc1cccc2ccccc12)c1cccs1 [duloxetine]
leak point pressure after drug administration ([3]; 0.3 mg/kg): 48.3 ± 7.9 cmH2O
leak point pressure increase ([3]; 0.3 mg/kg): 2.4 ± 4.3 cmH2O
leak point pressure after drug administration ([3]; 1 mg/kg): 53.0 ± 4.8 cmH2O
leak point pressure increase ([3]; 1 mg/kg): 8.1 ± 2.3 cmH2O
leak point pressure after drug administration ([3]; 3 mg/kg): 61.4 ± 3.9 cmH2O
leak point pressure increase ([3]; 3 mg/kg): 12.9 ± 3.2 cmH2O
leak point pressure after drug administration ([3]; 10 mg/kg): 53.0 ± 8.8 cmH2O
leak point pressure increase ([3]; 10 mg/kg): 13.0 ± 2.5 cmH2O
leak point pressure before drug administration ([3]; dose group 0.3 mg/kg): 45.9 ± 5.4 cmH2O
leak point pressure before drug administration ([3]; dose group 1 mg/kg): 44.9 ± 5.9 cmH2O
leak point pressure before drug administration ([3]; dose group 3 mg/kg): 48.5 ± 4.8 cmH2O
leak point pressure before drug administration ([3]; dose group 10 mg/kg): 40.0 ± 7.3 cmH2O
effect on leak point pressure, comparison before and after administration ([3]; intravenously administered): significant increase in the leak point pressure
